Measured values: the NIST ThermoML archive (doi:10.1016/j.jct.2006.05.008)

Test: molar heat capacity at constant pressure
Details: 101.33 kPa, Small (less than 1 g) adiabatic calorimetry

CCCCn1cc[n+](C)c1.[Br-] [1-butyl-3-methylimidazolium bromide]
Details | molar heat capacity at constant pressure [J/K/mol]
41.66 K, Glass | 62.09
43.35 K, Crystal | 66.08
43.62 K, Glass | 64.96
45 K, Crystal | 68.34
45.33 K, Crystal | 68.81
45.59 K, Glass | 67.7
47.31 K, Crystal | 71.45
47.56 K, Glass | 70.47
49.28 K, Crystal | 73.96
49.53 K, Glass | 73.04
50 K, Crystal | 74.81
51.25 K, Crystal | 76.33
51.5 K, Glass | 75.54
53.22 K, Crystal | 78.7
53.47 K, Glass | 77.99
55.2 K, Crystal | 80.87
55.43 K, Glass | 80.39
57.18 K, Crystal | 82.96
57.4 K, Glass | 82.69
59.15 K, Crystal | 84.96
59.37 K, Glass | 85.02
60 K, Crystal | 85.89
61.12 K, Crystal | 87.04
61.34 K, Glass | 87.33
63.1 K, Crystal | 89.03
63.31 K, Glass | 89.56
65.08 K, Crystal | 90.98
65.29 K, Glass | 91.73
67.06 K, Crystal | 92.73
67.27 K, Glass | 93.78
69.04 K, Crystal | 94.46
69.25 K, Glass | 95.85
70 K, Crystal | 95.2
71.02 K, Crystal | 96.12
71.23 K, Glass | 97.82
73.01 K, Crystal | 97.71
73.21 K, Glass | 99.78
75 K, Crystal | 99.35
75.2 K, Glass | 101.73
76.99 K, Crystal | 101.08
77.19 K, Glass | 103.84
78.99 K, Crystal | 102.78
79.19 K, Glass | 105.86
79.88 K, Crystal | 103.13
80 K, Crystal | 103.3
80.98 K, Crystal | 104.4
81.18 K, Glass | 107.71
81.99 K, Glass | 108.36
82.98 K, Crystal | 105.64
83.34 K, Crystal | 105.95
84.53 K, Glass | 110.36
84.99 K, Crystal | 106.91
85.34 K, Crystal | 107.22
86.53 K, Glass | 112.03
87.34 K, Crystal | 108.66
88.52 K, Glass | 113.8
89.34 K, Crystal | 110.09
90 K, Crystal | 110.5
90.52 K, Glass | 115.58
91.34 K, Crystal | 111.54
92.52 K, Glass | 117.14
93.34 K, Crystal | 112.75
94.51 K, Glass | 118.71
95.34 K, Crystal | 114.08
96.52 K, Glass | 120.45
97.35 K, Crystal | 115.46
98.52 K, Glass | 121.83
99.35 K, Crystal | 116.72
100 K, Crystal | 117.1
100.53 K, Glass | 123.29
101.36 K, Crystal | 118.12
102.54 K, Glass | 125.09
103.37 K, Crystal | 119.58
104.55 K, Glass | 126.48
105.39 K, Crystal | 120.44
106.56 K, Glass | 127.9
107.41 K, Crystal | 121.58
108.57 K, Glass | 129.45
109.43 K, Crystal | 122.78
110 K, Crystal | 123.1
110.59 K, Glass | 130.89
111.44 K, Crystal | 123.99
112.61 K, Glass | 132.26
113.47 K, Crystal | 125.16
114.64 K, Glass | 133.7
115.5 K, Crystal | 126.62
116.67 K, Glass | 135.05
117.53 K, Crystal | 127.63
118.69 K, Glass | 136.36
119.57 K, Crystal | 128.57
120 K, Crystal | 128.8
120.72 K, Glass | 137.61
121.6 K, Crystal | 129.71
